Values of other authors as cited in patent US7044945B2, “Prevention of regression in thermal ciliary muscle tendinoplasty” (priority 2001, dated 2006).

Experiments:
[1] = in mammals

| SMILES | tensile strength of the wounds (healing wound; compared with controls) | thermal shrinkage temperature of individual collagen fibers from the wounds (healing wound; treated wounds compared to comparable controls) | solubility in water and alcohol | toxicity [1] |
| --- | --- | --- | --- | --- |
| CCN=C=NCCCN(C)C.Cl [1-ethyl-1-3 (3-dimethylaminopropyl) carbodiimide hydrochloride] | sizable increase | increased | – | – |
| OCC(O)CO [glycerol] | – | – | completely soluble | very low toxicity |
